Assay results published in patent publication EP4140481A1, “PROTEIN-OLIGOMER BINDING AGENTS AND THERAPEUTIC USES THEREOF” (Galyan Bio, Inc., priority 2021, dated 2023).
Like-named read-outs stand apart in the source and are kept apart here.

Experiments:
mHTT [1] = molecular target: T1, mHTT (Homo sapiens, UniProt P42858); details: reported effects in cultured cells, quoted for C. elegans dose selection; cited from earlier work
T1 construct: host or cells: ST HDH Q111/111 mouse striatal cell line (knock-in locus)

zebrafish larvae = experiment: Motility Zebrafish Model (MPP+ exposure, photomotor assay and sleep)
Experimental: Six groups were included in each experiment. Immediately after spawning, 40 embryos per group were allocated to a 24-well plate and system water (solvent) was added to all wells. […] MPP+ was prepared immediately prior to incubation and solutions were changed daily. At 120 hpf, drug treatment and MPP+ exposure was ceased and a 3X wash was performed with system water. Larvae were then relocated to 96-well plates for behavioral recording and placed in a separate recording room for 24-hour acclimation. Prior to behavioral recording, wells were fully replenished system water.
Naive group was exposed to solvent only. Vehicle group was exposed to solvent and vehicle corresponding to the vehicle of 20 µM drug solution (0.02% DMSO). MPP+ positive control was exposed to solvent and 500 µM MPP+.
Behavioral data was recorded from 1 p.m. on 6 dpf until shortly after wakening on 7 dpf. The recording consisted of a photomotor assay in which lights switch off and on in 30-minute intervals between 1 p.m. and 6 p.m., producing a consistent photomotor response. […] Upon lights being turned on again, the larvae cease movement followed by a return to baseline. This cycle is repeated five times. Following the last lights-off phase, constant illumination is presented until lights turn off at 10 p.m. for the night. Lights turn on again at 8 a.m. the following day.
Average movement frequency was measured during 30-minute lights-on phases of photomotor assay.
Distance moved (mm) was defined as the average distance moved during 30-minute lights-on phases of photomotor assay.
All data are presented as mean ± standard error of the mean (sem). For analysis of differences between groups, a Kruskal-Wallis one-way ANOVA with Dunn's multiple comparison post hoc test was performed. P < 0.05 was considered statistically significant.

C. elegans = C. elegans healthspan, Worm Activity (aggregate movement); assay type: in vivo
From the text: Background: To measure healthspan, active worms were identified using the ALM scanner images from the lifespan assay. The worms' spatial location on the plate was quantified throughout their lifespan to assess healthspan. Worm Activity serves as a proxy for animal health. Changes in spatial distribution of the worms between time points is used to derive aggregate movement for the population over time.
Worm Activity is described by two complementary measurements of aggregate movement: 1) Centroid Distance calculates a geometric center for each individual worm, and then measures the minimum collective distance that a group of worms moved between time points. It achieves measurement of the changes in spatial distribution betweentime-points. 2). Spatial Distribution uses changes in worm contours between time points to measure the changes in the spatial distribution of the worms' bodies. The normalized distribution of these distances in the population provides a measure of how much the group of worms altered their positions and posture on the plate between two time-points. For both of these activity metrics, a plot with higher numbers indicates good health, and all measures are normalized to fall between 0 and 1. All measurements are based on worms that are still alive and moving at the time of quantification. […]

STHdh 111/111 = experiment: Morphology of striatal cells expressing mutated huntingtin; assay type: cell-based, mouse; details: treated versus not treated STHdh 111/111
mHTT [2] = molecular target: T1, mHTT; experiment: mHTT levels in striatal cells (immunocytochemistry); assay type: cell-based, mouse; details: STHdh 111/111; MW1 primary antibody; non-linear regression; read-out: EC 50 value for mHTT reduction
[3] = Body weight in R6/2 mice of Huntington's disease; assay type: in vivo
Experimental: (§1) Methods ― Total of 20 female and male R6/2 mice and 10 female and male wild-type littermate control mice (WT) were used in the study. The mice were genotyped and the R6/2 mice were divided into different treatment groups based on their litter and baseline body weight. The treatment with Vehicle or Compound 22 (33 mg/kg; 5 ml/kg, i.p. QD) was started at 4 weeks of age after the baseline behavioral tests (Figure 6). Body weights were measured at 3 weeks of age and twice a week until the end of the study.
(§2) The experimental groups were: • Group 1) 10 wild-type mice (mixed gender) treated with Vehicle (5 ml/kg, i.p., QD) starting at 4 weeks of age • Group 2) 10 R6/2 mice (mixed gender) treated with Vehicle (5 ml/kg, i.p., QD) starting at 4 weeks of age • Group 3) 10 R6/2 mice (mixed gender) treated with Compound 22 (33 mg/kg; 5 ml/kg, i.p. QD) starting at 4 weeks of age
Compound Delivery and Dosing - Treatment with Compound 22 (33 mg/kg; 5 ml/kg, i.p. QD) or Vehicle was started at age week 4 and continued until the 12 weeks of age. The test articles were handled and stored and the dose formulations were prepared according to detailed instructions provided by the Sponsor.
Body Weight - Body weight was measured starting at 3 weeks of age before treatment onset and two times per week on the same day (on Monday and Friday) until the end of the study.

STHdh 111/111 cells = experiment: Gene expression (Nanostring nCounter Mouse Neuropathology Panel); assay type: cell-based
Experimental: (§3) Gene expression of certain transcripts of interest were measured using Nanostring Technology. […] Some STHdh 7/7 and STHdh 111/111 cell samples were not heat shocked and some wells were treated with Compound 22 at the indicated concentration on for 48 hours (Table 17). Some STHdh 7/7 and STHdh 111/111 cell samples were heat shocked for 3 hours some wells were treated with Compound 22 at the indicated concentration on for 48 hours (Table 18). Cells are washed with PBS, trypsinised, and gathered in a 15 ml falcon tube. After a short spin down for 3 minutes at 300 g, the cell pellet was washed with PBS once, before it was frozen down in liquid nitrogen. RNA was extracted with a standard protocol. The nCounter® Mouse Neuropathology Panel (Nanostring, Seattle) was used for gene expression analysis according to the manufacturer's protocols. Table 17. Cell samples that were not subject to heat shock treatment

STHdh 7/7 cells = experiment: as above; assay type: cell-based; details: 10 µM or 20 µM, 48 h, in comparison to untreated cells
Experimental: as §3

R6/2 mice = experiment: Grip strength in R6/2 mice of Huntington's disease; assay type: in vivo; details: 33 mg/kg i.p. QD; versus vehicle treated R6/2 mice
Experimental: as §1, §2
Compound Delivery and Dosing - Treatment with Compound 22 (33 mg/kg; 5 ml/kg, i.p. QD) or Vehicle was started at age week 4 and continued until the 12 weeks of age. […]
Mice were taken to the experimental room and, one at a time, were placed on the grip strength apparatus (San Diego Instruments, San Diego, USA) in such a way that the animal grabbed a small mesh grip with its forepaws. […] Five scores were recorded per animal in consecutive sequence, and the average of three best scores for each animal was used for the results. […]

Microsomal stability = assay type: in vitro ADME; details: humans versus mice
[4] = treated STHdh 111/111 in comparison to untreated STHdh 111/111

T1 sequence (P42858 with tags, fused parts or gaps with the stated changes): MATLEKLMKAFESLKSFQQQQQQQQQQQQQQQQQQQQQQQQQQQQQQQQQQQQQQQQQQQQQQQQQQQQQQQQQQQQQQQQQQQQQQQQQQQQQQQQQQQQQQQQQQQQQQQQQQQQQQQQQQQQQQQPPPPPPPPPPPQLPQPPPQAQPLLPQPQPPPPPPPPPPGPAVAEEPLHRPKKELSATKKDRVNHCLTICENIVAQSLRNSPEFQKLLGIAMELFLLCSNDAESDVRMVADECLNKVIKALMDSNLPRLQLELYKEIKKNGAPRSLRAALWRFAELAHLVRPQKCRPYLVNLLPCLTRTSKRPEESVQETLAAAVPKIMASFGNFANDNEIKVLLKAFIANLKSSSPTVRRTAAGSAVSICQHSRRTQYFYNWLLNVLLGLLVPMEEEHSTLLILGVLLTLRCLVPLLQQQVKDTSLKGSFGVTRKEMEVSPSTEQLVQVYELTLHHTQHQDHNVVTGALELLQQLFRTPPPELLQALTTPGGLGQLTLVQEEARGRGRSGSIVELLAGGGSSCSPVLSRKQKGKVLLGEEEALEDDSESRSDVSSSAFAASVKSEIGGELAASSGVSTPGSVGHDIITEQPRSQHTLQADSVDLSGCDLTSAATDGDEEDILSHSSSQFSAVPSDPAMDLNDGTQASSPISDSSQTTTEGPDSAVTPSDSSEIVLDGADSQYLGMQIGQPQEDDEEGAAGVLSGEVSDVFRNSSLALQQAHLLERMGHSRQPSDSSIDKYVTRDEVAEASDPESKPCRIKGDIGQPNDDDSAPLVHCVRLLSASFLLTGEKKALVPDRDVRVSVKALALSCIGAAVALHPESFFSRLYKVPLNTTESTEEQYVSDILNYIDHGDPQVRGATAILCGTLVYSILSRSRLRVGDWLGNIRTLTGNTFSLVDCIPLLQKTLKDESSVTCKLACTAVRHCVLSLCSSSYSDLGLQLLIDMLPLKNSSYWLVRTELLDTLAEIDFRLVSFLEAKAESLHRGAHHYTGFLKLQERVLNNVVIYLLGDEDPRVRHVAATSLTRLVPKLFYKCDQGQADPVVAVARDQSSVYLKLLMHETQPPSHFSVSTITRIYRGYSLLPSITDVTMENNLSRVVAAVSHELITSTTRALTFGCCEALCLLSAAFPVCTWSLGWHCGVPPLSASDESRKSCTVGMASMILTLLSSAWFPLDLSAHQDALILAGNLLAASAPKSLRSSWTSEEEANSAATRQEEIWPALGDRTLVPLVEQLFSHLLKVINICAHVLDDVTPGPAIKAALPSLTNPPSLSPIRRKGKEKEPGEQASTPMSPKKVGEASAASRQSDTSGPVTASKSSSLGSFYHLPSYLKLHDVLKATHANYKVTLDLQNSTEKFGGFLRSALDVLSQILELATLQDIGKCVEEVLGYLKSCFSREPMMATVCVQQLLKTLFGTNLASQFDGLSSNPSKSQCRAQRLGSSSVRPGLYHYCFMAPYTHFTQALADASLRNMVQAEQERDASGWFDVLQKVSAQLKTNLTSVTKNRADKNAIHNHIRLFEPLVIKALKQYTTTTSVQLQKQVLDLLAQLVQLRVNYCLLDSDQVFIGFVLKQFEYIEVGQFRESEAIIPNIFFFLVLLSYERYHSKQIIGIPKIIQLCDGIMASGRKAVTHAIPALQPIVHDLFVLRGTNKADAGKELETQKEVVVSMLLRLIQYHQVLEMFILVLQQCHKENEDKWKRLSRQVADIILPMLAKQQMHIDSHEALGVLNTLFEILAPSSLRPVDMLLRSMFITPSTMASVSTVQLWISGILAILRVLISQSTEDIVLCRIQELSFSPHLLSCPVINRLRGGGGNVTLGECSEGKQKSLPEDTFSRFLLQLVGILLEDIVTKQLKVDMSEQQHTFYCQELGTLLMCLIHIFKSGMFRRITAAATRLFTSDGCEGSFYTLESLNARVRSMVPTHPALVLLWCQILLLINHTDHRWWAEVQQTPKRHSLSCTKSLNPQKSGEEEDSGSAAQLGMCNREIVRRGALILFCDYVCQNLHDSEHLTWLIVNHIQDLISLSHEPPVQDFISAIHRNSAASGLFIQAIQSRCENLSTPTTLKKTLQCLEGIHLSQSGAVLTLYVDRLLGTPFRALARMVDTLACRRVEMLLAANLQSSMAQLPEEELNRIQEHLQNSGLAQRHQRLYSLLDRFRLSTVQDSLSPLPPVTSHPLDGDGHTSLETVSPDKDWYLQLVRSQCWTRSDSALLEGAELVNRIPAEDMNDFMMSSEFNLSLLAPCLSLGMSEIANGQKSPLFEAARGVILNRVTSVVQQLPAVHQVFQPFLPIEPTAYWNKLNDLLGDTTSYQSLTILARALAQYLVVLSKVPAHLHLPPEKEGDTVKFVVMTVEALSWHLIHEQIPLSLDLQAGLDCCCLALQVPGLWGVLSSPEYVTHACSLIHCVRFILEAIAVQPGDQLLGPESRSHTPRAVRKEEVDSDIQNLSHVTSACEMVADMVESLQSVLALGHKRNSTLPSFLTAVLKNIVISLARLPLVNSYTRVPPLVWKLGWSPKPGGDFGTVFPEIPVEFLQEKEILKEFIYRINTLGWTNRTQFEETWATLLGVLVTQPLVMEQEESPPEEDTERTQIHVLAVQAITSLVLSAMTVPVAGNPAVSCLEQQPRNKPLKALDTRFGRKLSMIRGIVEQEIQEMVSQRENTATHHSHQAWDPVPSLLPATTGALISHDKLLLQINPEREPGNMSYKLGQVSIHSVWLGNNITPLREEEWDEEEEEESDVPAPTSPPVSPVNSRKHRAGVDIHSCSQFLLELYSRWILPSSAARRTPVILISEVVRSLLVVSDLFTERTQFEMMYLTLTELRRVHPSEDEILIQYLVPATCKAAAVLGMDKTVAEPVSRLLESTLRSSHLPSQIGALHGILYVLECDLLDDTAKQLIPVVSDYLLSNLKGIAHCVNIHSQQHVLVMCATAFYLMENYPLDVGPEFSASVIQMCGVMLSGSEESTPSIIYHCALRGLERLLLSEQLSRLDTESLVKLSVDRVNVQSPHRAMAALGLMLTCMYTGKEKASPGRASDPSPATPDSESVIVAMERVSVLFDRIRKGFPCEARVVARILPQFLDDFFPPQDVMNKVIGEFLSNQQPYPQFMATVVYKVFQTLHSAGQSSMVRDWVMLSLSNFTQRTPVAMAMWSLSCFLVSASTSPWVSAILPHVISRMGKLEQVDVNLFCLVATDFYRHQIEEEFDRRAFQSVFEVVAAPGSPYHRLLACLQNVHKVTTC

Structure (SMILES): CCc1c(C)[nH]c2ccc(C(=O)NCCN(CC)CC)cc12 [Compound 4, N-(2-(diethylamino)ethyl)-3-ethyl-2-methyl-1H-indole-5-carboxamide]
- EC50 (mHTT [1]): 160 nM
- movement frequency (zebrafish larvae; 1 µM Compound 4 with 500 µM MPP+ (naïve 40.8)): 21.0 movement bouts in 30 minutes
- distance moved (zebrafish larvae; 1, 10 and 20 µM co-incubated with 500 µM MPP+, compared to MPP+): no significant difference
- sleep parameters (sleep fragmentation, sleep ratio, velocity, wake bout duration, sleep bout duration) (zebrafish larvae; co-incubation with MPP+, between groups): No statistically significant difference
- overall movement during assessment of neuroprotection (zebrafish larvae; concentrations ~10 µM and ~1 µM): subtle increase in overall movement
- movement frequency (zebrafish larvae; drug treatment groups compared to MPP+): no significant difference
- aggregate movement (Centroid Distance, Spatial Distribution) (C. elegans; high dose (2 µM), after a slower start): even more elevated movement
- aggregate movement (Centroid Distance, Spatial Distribution) (C. elegans; low dose (200 nM), over the lifespan): consistently higher aggregate movement than control
- cell morphology (STHdh 111/111): improved cell viability, dendrite outgrowth and increased cell size
- EC50 (mHTT [2]): 130 nM

Structure (SMILES): Cc1[nH]c2ccc(C(=O)NCCN(C(C)C)C(C)C)cc2c1C [Compound 22]
- body weight ([3]; 33 mg/kg i.p. QD, R6/2 mice 3 to 12 weeks, versus vehicle treated R6/2 mice): no significant differences
- Body weight loss ([3]; female R6/2 mice at week 12, in comparison to untreated female R6/2 mice): significantly improved
- Body weight loss improvement ([3]; male R6/2 mice at week 12, in comparison to untreated male R6/2 mice): not observed
- Genes associated with the autophagy pathway (STHdh 111/111 cells; 10 µM or 20 µM, 48 h, in comparison to untreated cells): upregulated
- NGFR expression increase (STHdh 111/111 cells; paragraph on the KCNA1 gene (Figure 25 (E)), treated versus untreated STHdh 111/111): 68%
- Slc32a1 expression upregulation (STHdh 111/111 cells; treated STHdh 111/111 (Q111-10) in comparison to untreated STHdh 111/111): 12 fold
- Olig2 expression (STHdh 111/111 cells; [4]): doubled
- Rasgrp1 expression downregulation (STHdh 111/111 cells; [4]): 29%
- NGFR expression increase (STHdh 111/111 cells; treated STHdh 111/111 in comparison to untreated STHdh 111/111 (Figure 25 (D))): 60%
- Genes associated with the autophagy pathway (STHdh 7/7 cells): upregulated
- grip strength (R6/2 mice): no significant differences
- microsomal stability in humans, times higher in comparison to mice (Microsomal stability): 20 times
